From patent US20250215029A1 (Recludix Pharma, Inc., priority 2022, published 2025)
pIC50: −log10 of the molar value. Like-named read-outs stand apart in the source and are kept apart here.

Experiments:
[1] = target: T1, Recombinant STAT6 protein (STAT6 (W123-T658)) (Homo sapiens, UniProt P42226); experiment: STAT6 Fluorescence Polarization (FP) Assay; type: binding; settings: STAT6 (W123-T658) 250 nM, 45-minute incubation, read-out: STAT6 (FP assay IC50 class)
T1 construct: Recombinant STAT6 protein (STAT6 (W123-T658))
T1 sequence (P42226 123-658): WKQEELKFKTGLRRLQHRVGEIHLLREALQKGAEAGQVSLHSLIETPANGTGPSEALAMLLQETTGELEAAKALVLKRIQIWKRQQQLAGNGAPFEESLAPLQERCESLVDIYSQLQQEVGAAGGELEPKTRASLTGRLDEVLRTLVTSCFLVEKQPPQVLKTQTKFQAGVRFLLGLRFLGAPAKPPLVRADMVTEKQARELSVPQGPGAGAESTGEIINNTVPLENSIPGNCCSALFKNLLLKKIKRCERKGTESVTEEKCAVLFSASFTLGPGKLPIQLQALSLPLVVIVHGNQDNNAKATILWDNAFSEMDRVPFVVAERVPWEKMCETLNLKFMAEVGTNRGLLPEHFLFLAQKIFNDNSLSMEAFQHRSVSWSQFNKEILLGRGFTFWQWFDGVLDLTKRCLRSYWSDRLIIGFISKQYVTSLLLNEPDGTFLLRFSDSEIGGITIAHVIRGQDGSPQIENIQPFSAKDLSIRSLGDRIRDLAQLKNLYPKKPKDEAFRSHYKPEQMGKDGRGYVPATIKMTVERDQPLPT
Outline: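 Displacement of a fluorescent phosphotyrosine peptide (2 nM) from 250 nM STAT6 (W123-T658) is measured by polarization after a 45-minute room-temperature incubation. Compounds are titrated serially at 1% DMSO, and IC50 values derive from regression of mP on log concentration.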

[2] = target: T2, Recombinant STAT3 protein (STAT3 (G127-I722)) (Homo sapiens, UniProt P40763); experiment: STAT3 Fluorescence Polarization (FP) Assay; type: binding; settings: STAT3 (G127-I722) 25 nM, probe 5-FAM-GpYLPQTV-NH2 2 nM, 45-minute incubation; read-out: STAT3 (FP assay IC50 class)
T2 construct: Recombinant STAT3 protein (STAT3 (G127-I722))
Outline: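 Compounds in serial dilution receive a premix of STAT3 (G127-I722, 25 nM) and fluorescent phosphotyrosine peptide 5-FAM-GpYLPQTV-NH2 (2 nM) at pH 7.4. After 45 min at room temperature, FP is measured and IC50 derived by nonlinear regression.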

[3] = probe 5-FAM-ApYKPFQDLI-NH2 2 nM

T2 sequence (P40763 127-722): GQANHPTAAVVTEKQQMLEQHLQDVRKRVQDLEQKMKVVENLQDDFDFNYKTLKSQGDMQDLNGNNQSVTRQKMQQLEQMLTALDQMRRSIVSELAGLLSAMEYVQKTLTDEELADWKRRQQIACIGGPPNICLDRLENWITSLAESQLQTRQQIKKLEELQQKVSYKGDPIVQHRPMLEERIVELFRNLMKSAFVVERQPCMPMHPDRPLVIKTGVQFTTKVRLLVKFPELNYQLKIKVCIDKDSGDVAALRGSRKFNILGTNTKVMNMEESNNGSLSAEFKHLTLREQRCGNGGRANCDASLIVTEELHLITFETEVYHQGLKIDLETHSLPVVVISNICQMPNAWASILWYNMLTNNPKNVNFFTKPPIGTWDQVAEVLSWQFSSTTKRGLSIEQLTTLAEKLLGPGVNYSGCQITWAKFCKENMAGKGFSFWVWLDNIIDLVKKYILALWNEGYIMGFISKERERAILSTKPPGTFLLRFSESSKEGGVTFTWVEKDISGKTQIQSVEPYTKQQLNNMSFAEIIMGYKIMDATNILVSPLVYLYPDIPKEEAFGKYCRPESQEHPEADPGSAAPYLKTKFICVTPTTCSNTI

SMILES	pIC50 ([1]; probe 5-FAM-Ap[…]-NH2 2 nM)	pIC50 [2]	pIC50 [1, 3]
COc1cncc([C@@H]2CN(C(=O)[C@@H]3CC[C@@H]4CCC[C@H](NC(=O)c5cc6cc([C@H](F)P(=O)(O)O)ccc6s5)C(=O)N43)C3(CC3)[C@H]2C#N)c1 (single isomer, unassigned) [Compound 847]	–	5.00 to 6.00	5.52 to 6.52
O=C(N[C@H]1CCCC[C@H]2CC[C@@H](C(=O)N3C[C@H](c4cccnc4)CC34CC4)N2C1=O)c1cc2cc([C@@H](F)P(=O)(O)O)ccc2s1 (single isomer, unassigned) [Compound 909]	≥ 6.52	5.00 to 6.00	–
O=C(N[C@H]1CCCC[C@H]2CC[C@@H](C(=O)N3C[C@H](c4cccnc4)CC34CC4)N2C1=O)c1cc2cc([C@H](F)P(=O)(O)O)ccc2s1 (single isomer, unassigned) [Compound 911]	≥ 6.52	5.00 to 6.00	–
N#C[C@H]1[C@H](c2ccccc2)CN(C(=O)[C@@H]2CC[C@@H]3CCC[C@H](NC(=O)c4cc5cc([C@H](F)P(=O)(O)O)ccc5s4)C(=O)N32)C12CC2 (single isomer, unassigned) [Compound 916]	≥ 6.52	5.00 to 6.00	–
O=C(N[C@H]1CCC[C@H]2CC[C@@H](C(=O)N3C[C@@H](c4cccnc4)CC34CC4)N2C1=O)c1cc2cc([C@@H](F)P(=O)(O)O)ccc2s1 (single isomer, unassigned) [Compound 917]	≥ 6.52	5.00 to 6.00	–
N#C[C@@H]1[C@@H](c2ccccc2)CN(C(=O)[C@@H]2CC[C@@H]3CCC[C@H](NC(=O)c4cc5cc([C@H](F)P(=O)(O)O)ccc5s4)C(=O)N32)C12CC2 (single isomer, unassigned) [Compound 919]	≥ 6.52	5.00 to 6.00	–
N#C[C@@H]1[C@@H](c2ccccc2)CN(C(=O)[C@@H]2CC[C@@H]3CCC[C@H](NC(=O)c4cc5cc([C@@H](F)P(=O)(O)O)ccc5s4)C(=O)N32)C12CC2 (single isomer, unassigned) [Compound 920]	≥ 6.52	5.00 to 6.00	–
N#C[C@@H]1[C@@H](c2ccccc2)CN(C(=O)[C@@H]2CC[C@@H]3CCCC[C@H](NC(=O)c4cc5cc([C@@H](F)P(=O)(O)O)ccc5s4)C(=O)N32)C12CC2 (single isomer, unassigned) [Compound 923]	≥ 6.52	5.00 to 6.00	–
N#C[C@H]1[C@H](c2ccccc2)CN(C(=O)[C@@H]2CC[C@@H]3CCCC[C@H](NC(=O)c4cc5cc([C@H](F)P(=O)(O)O)ccc5s4)C(=O)N32)C12CC2 (single isomer, unassigned) [Compound 924]	≥ 6.52	5.00 to 6.00	–
N#C[C@@H]1[C@@H](c2ccccc2)CN(C(=O)[C@@H]2CC[C@@H]3C[C@@H](N4CCC4)CC[C@H](NC(=O)c4cc5cc([C@H](F)P(=O)(O)O)ccc5s4)C(=O)N32)C12CC2 (single isomer, unassigned) [Compound 934]	≥ 6.52	5.00 to 6.00	–
N#C[C@@H]1[C@@H](c2ccccc2)CN(C(=O)[C@@H]2CC[C@@H]3C[C@@H](N4CCC4)CC[C@H](NC(=O)c4cc5cc([C@@H](F)P(=O)(O)O)ccc5s4)C(=O)N32)C12CC2 (single isomer, unassigned) [Compound 935]	≥ 6.52	5.00 to 6.00	–
N#C[C@H]1[C@H](c2ccccc2)CN(C(=O)[C@@H]2CC[C@@H]3C[C@@H](N4CCC4)CC[C@H](NC(=O)c4cc5cc([C@H](F)P(=O)(O)O)ccc5s4)C(=O)N32)C12CC2 (single isomer, unassigned) [Compound 936]	≥ 6.52	5.00 to 6.00	–
N#C[C@H]1[C@H](c2ccccc2)CN(C(=O)[C@@H]2CC[C@@H]3C[C@@H](N4CCC4)CC[C@H](NC(=O)c4cc5cc([C@@H](F)P(=O)(O)O)ccc5s4)C(=O)N32)C12CC2 (single isomer, unassigned) [Compound 937]	≥ 6.52	5.00 to 6.00	–

Now from value to compound, other results behind:

pIC50 ([1]; probe 5-FAM-Ap[…]-NH2 2 nM)	pIC50 [2]	SMILES	pIC50 [1, 3]
5.52 to 6.52	5.00 to 6.00	COc1cncc([C@H]2CN(C(=O)[C@@H]3CC[C@@H]4CCC[C@H](NC(=O)c5cc6cc([C@@H](F)P(=O)(O)O)ccc6s5)C(=O)N43)C3(CC3)[C@@H]2C#N)c1 (single isomer, unassigned) [Compound 844]	–
≥ 6.52	5.00 to 6.00	N#C[C@@H]1[C@@H](c2cncc(Cl)c2)CN(C(=O)[C@@H]2CC[C@@H]3CCCC[C@H](NC(=O)c4cc5cc([C@H](F)P(=O)(O)O)ccc5s4)C(=O)N32)C12CC2 (single isomer, unassigned) [Compound 845]	–
5.52 to 6.52	5.00 to 6.00	N#C[C@@H]1[C@@H](c2cncc(Cl)c2)CN(C(=O)[C@@H]2CC[C@@H]3CCCC[C@H](NC(=O)c4cc5cc(C(F)P(=O)(O)O)ccc5s4)C(=O)N32)C12CC2 (single isomer, unassigned) [Compound 846]	–
5.52 to 6.52	5.00 to 6.00	COc1cncc([C@H]2CN(C(=O)[C@@H]3CC[C@@H]4CCCC[C@H](NC(=O)c5cc6cc([C@H](F)P(=O)(O)O)ccc6s5)C(=O)N43)C3(CC3)[C@@H]2C#N)c1 (single isomer, unassigned) [Compound 848]	–
4.52 to 5.52	> 7.00	O=C(N[C@H]1CCC[C@H]2CC[C@@H](C(=O)N3CC(c4cncnc4N4CCOCC4)C3)N2C1=O)c1cc2cc([C@H](F)P(=O)(O)O)ccc2s1 (single isomer, unassigned) [Compound 857]	–
4.52 to 5.52	> 7.00	O=C(N[C@H]1CCC[C@H]2CC[C@@H](C(=O)N3CC(c4cncnc4N4CCOCC4)C3)N2C1=O)c1cc2cc([C@@H](F)P(=O)(O)O)ccc2s1 (single isomer, unassigned) [Compound 861]	–
4.52 to 5.52	> 7.00	COC[C@@H]1CCN1c1ncncc1C1CN(C(=O)[C@@H]2CC[C@@H]3CCC[C@H](NC(=O)c4cc5cc([C@H](F)P(=O)(O)O)ccc5s4)C(=O)N32)C1 (single isomer, unassigned) [Compound 862]	–
≥ 6.52	6.00 to 7.00	N#C[C@@H]1CN(C(=O)[C@@H]2CC[C@@H]3CCCC[C@H](NC(=O)c4cc5cc([C@H](F)P(=O)(O)O)ccc5s4)C(=O)N32)C[C@H]1c1cc[nH]c(=O)c1 (single isomer, unassigned) [Compound 872]	–
≥ 6.52	6.00 to 7.00	N#C[C@H]1CN(C(=O)[C@@H]2CC[C@@H]3CCCC[C@H](NC(=O)c4cc5cc(C(F)(F)P(=O)(O)O)ccc5s4)C(=O)N32)C[C@@H]1c1cc[nH]c(=O)c1 (single isomer, unassigned) [Compound 875]	–
5.52 to 6.52	5.00 to 6.00	Cc1cc(C2CN(C(=O)[C@@H]3CC[C@@H]4CCCC[C@H](NC(=O)c5cc6cc(C(F)(F)P(=O)(O)O)ccc6s5)C(=O)N43)CC2C#N)cc(=O)[nH]1 (single isomer, unassigned) [Compound 876]	–
5.52 to 6.52	5.00 to 6.00	N#C[C@H]1CN(C(=O)[C@@H]2CC[C@@H]3CCCC[C@H](NC(=O)c4cc5cc(CP(=O)(O)O)ccc5s4)C(=O)N32)C[C@@H]1c1cc[nH]c(=O)c1 (single isomer, unassigned) [Compound 878]	–
≥ 6.52	5.00 to 6.00	O=C(N[C@H]1CCCC[C@H]2CC[C@@H](C(=O)N3C[C@@H](c4ccccc4)CC34CC4)N2C1=O)c1cc2cc(C(F)(F)P(=O)(O)O)ccc2s1 (single isomer, unassigned) [Compound 889]	–
–	5.00 to 6.00	O=C(N[C@H]1CCCC[C@H]2CC[C@@H](C(=O)N3C[C@@H](c4ccccc4)CC34CC4)N2C1=O)c1cc2cc(C(F)(F)P(=O)(O)O)ccc2s1 (single isomer, unassigned) [Compound 890]	≥ 6.52
≥ 6.52	5.00 to 6.00	N#C[C@@H]1[C@@H](c2ccccc2)CN(C(=O)[C@@H]2CC[C@@H]3CCCC[C@H](NC(=O)c4ccc5ccc(C(F)P(=O)(O)O)cc5c4)C(=O)N32)C12CC2 (single isomer, unassigned) [Compound 894]	–
4.52 to 5.52	5.00 to 6.00	CC(c1ccc2ccc(C(=O)N[C@H]3CCCC[C@H]4CC[C@@H](C(=O)N5C[C@@H](c6ccccc6)CC56CC6)N4C3=O)cc2c1)P(=O)(O)O (single isomer, unassigned) [Compound 897]	–
≥ 6.52	5.00 to 6.00	O=C(N[C@H]1CCCC[C@H]2CC[C@@H](C(=O)N3C[C@@H](c4cccnc4)CC34CC4)N2C1=O)c1cc2cc([C@H](F)P(=O)(O)O)ccc2s1 (single isomer, unassigned) [Compound 908]	–
